This assay concerns the target SARS2 coronavirus 3CL protease (Severe acute respiratory syndrome coronavirus 2 (2019-nCoV) (SARS-CoV-2), UniProt P0DTD1). The experiment in a line: SARS2 Coronavirus 3CL Protease Assay (FRET). It is filed as biochemical. Conditions: SARS2 3CLPro FRET assay; 5 nM enzyme, 30 min pre-incubation with compound, 15 uM peptide substrate, 4 h room temperature.

By IC50 is commonly meant the concentration that gives 50% inhibition. Turning to `COC(=O)N[C@H](C(=O)N1CC2(CCCCC2)C[C@H]1C(=O)N[C@@H](CCC(C)(F)F)C(=O)C(=O)NC1CC1)C(F)(F)F` [Example 46, Methyl ((R)-3-((S)-3-(((S)-1-(cyclopropylamino)-6,6-difluoro-1,2-dioxoheptan-3-yl)carbamoyl)-2-azaspiro[4.5]decan-2-yl)-1,1,1-trifluoro-3-oxopropan-2-yl)carbamate], the IC50 is 34 nM. Regarding `COC(=O)N[C@H](C(=O)N1C[C@H](OC(F)(F)F)C(C)(C)[C@H]1C(=O)N[C@@H](CCC(C)(F)F)C(=O)C(=O)NC1CC1)C(C)(C)C` [Example 48, Methyl ((S)-1-((2S,4R)-2-(((S)-1-(cyclopropylamino)-6,6-difluoro-1,2-dioxoheptan-3-yl)carbamoyl)-3,3-dimethyl-4-(trifluoromethoxy)pyrrolidin-1-yl)-3,3-dimethyl-1-oxobutan-2-yl)carbamate], the IC50 stood at 45 nM.

On to `CC(C)OC(=O)N[C@H](C(=O)N1CC2(CCCCC2)C[C@H]1C(=O)N[C@@H](CCC(C)(F)F)C(=O)C(=O)NC1CC1)C1CCCCC1` [Example 50, Isopropyl ((S)-1-cyclohexyl-2-((S)-3-(((S)-1-(cyclopropylamino)-6,6-difluoro-1,2-dioxoheptan-3-yl)carbamoyl)-2-azaspiro[4.5]decan-2-yl)-2-oxoethyl)carbamate], for which the IC50 was determined as 62 nM.

As to `CNC(=O)C(=O)[C@H](CCC(C)(F)F)NC(=O)[C@@H]1CC2(CN1C(=O)[C@@H](NC(=O)OC)C(C)(C)C)CC(F)(F)C2` [Example 53, Methyl ((S)-1-((S)-7-(((S)-6,6-difluoro-1-(methylamino)-1,2-dioxoheptan-3-yl)carbamoyl)-2,2-difluoro-6-azaspiro[3.4]octan-6-yl)-3,3-dimethyl-1-oxobutan-2-yl)carbamate], the IC50 was 196 nM.

As to `COC(=O)N[C@H](C(=O)N1C2CCC(CC2)[C@H]1C(=O)N[C@@H](CCC(C)(F)F)C(=O)C(=O)NC1CC1)C(C)(C)C` [Example 59, Methyl ((S)-1-((S)-3-(((S)-1-(cyclopropylamino)-6,6-difluoro-1,2-dioxoheptan-3-yl)carbamoyl)-2-azabicyclo[2.2.2]octan-2-yl)-3,3-dimethyl-1-oxobutan-2-yl)carbamate], the IC50 amounted to 37 nM. To `COC(=O)N[C@H](C(=O)N1C[C@H]2[C@@H]([C@H]1C(=O)N[C@@H](CCC(C)(F)F)C(=O)C(=O)NC1CC1)C21CCOCC1)C(C)(C)C` [Example 60, Methyl ((S)-1-((1R,2S,5S)-2-(((S)-1-(cyclopropylamino)-6,6-difluoro-1,2-dioxoheptan-3-yl)carbamoyl)tetrahydro-3-azaspiro[bicyclo[3.1.0]hexane-6,4′-pyran]-3-yl)-3,3-dimethyl-1-oxobutan-2-yl)carbamate] belongs 19 nM; to `COC(=O)N[C@H](C(=O)N1CC[C@@H](C(F)(F)F)C[C@H]1C(=O)N[C@@H](CCC(C)(F)F)C(=O)C(=O)NC1CC1)C(C)(C)C` [Example 61, Methyl ((S)-1-((2S,4R)-2-(((S)-1-(cyclopropylamino)-6,6-difluoro-1,2-dioxoheptan-3-yl)carbamoyl)-4-(trifluoromethyl)piperidin-1-yl)-3,3-dimethyl-1-oxobutan-2-yl)carbamate], 16 nM; to `CNC(=O)C(=O)[C@H](CCC(C)(F)F)NC(=O)[C@@H]1CC2(CCCCC2)CN1C(=O)[C@@H](NC(=O)OC)C(C)(C)C` [Example 62, Methyl ((S)-1-((S)-3-(((S)-6,6-difluoro-1-(methylamino)-1,2-dioxoheptan-3-yl)carbamoyl)-2-azaspiro[4.5]decan-2-yl)-3,3-dimethyl-1-oxobutan-2-yl)carbamate], 8.8 nM. To `COC(=O)N[C@H](C(=O)N1CC[C@@H](C(F)(F)F)C[C@H]1C(=O)N[C@@H](CCC(C)(F)F)C(=O)C(=O)NC1CC1)c1ccccc1` [Example 65, Methyl ((S)-2-((2S,4R)-2-(((S)-1-(cyclopropylamino)-6,6-difluoro-1,2-dioxoheptan-3-yl)carbamoyl)-4-(trifluoromethyl)piperidin-1-yl)-2-oxo-1-phenylethyl)carbamate] belongs 24 nM. As for `CC(F)(F)CC[C@H](NC(=O)[C@@H]1[C@@H]2[C@H](CN1C(=O)[C@@H](NC(=O)OCc1ccccc1)C1CCCCC1)C21CCCCC1)C(=O)C(=O)NC1CC1` [Example 66, Benzyl ((S)-1-cyclohexyl-2-((1R,2S,5S)-2-(((S)-1-(cyclopropylamino)-6,6-difluoro-1,2-dioxoheptan-3-yl)carbamoyl)-3-azaspiro[bicyclo[3.1.0]hexane-6,1'-cyclohexan]-3-yl)-2-oxoethyl)carbamate], the figure is 9.9 nM; as for `COC(=O)N[C@H](C(=O)N1C[C@H](C(F)(F)F)C[C@H]1C(=O)N[C@@H](CCC(C)(F)F)C(=O)C(=O)NC1CC1)C(C)(C)C` [Example 67, Methyl ((S)-1-((2S,4R)-2-(((S)-1-(cyclopropylamino)-6,6-difluoro-1,2-dioxoheptan-3-yl)carbamoyl)-4-(trifluoromethyl)pyrrolidin-1-yl)-3,3-dimethyl-1-oxobutan-2-yl)carbamate], 20 nM.

For `COC(=O)N[C@@H](Cc1ccccc1)C(=O)N1CC[C@@H](C(F)(F)F)C[C@H]1C(=O)N[C@@H](CCC(C)(F)F)C(=O)C(=O)NC1CC1` [Example 68, Methyl ((S)-1-((2S,4R)-2-(((S)-1-(cyclopropylamino)-6,6-difluoro-1,2-dioxoheptan-3-yl)carbamoyl)-4-(trifluoromethyl)piperidin-1-yl)-1-oxo-3-phenylpropan-2-yl)carbamate], the IC50 amounted to 28 nM.

Regarding `COC(=O)N[C@H](C(=O)N1C[C@H]2[C@@H]([C@H]1C(=O)N[C@@H](CCC(C)(F)F)C(=O)C(=O)NC1CC1)C21CCCCC1)C(C)(C)C` [Example 69, Methyl ((S)-1-((1R,2S,5S)-2-(((S)-1-(cyclopropylamino)-6,6-difluoro-1,2-dioxoheptan-3-yl)carbamoyl)-3-azaspiro[bicyclo[3.1.0]hexane-6,1'-cyclohexan]-3-yl)-3,3-dimethyl-1-oxobutan-2-yl)carbamate], the IC50 came out at 31 nM. To `COC(=O)N[C@H](C(=O)N1C[C@H](OC(F)(F)F)C[C@H]1C(=O)N[C@@H](CCC(C)(F)F)C(=O)C(=O)NC1CC1)C(C)(C)C` [Example 70, Methyl ((S)-1-((2S,4R)-2-(((S)-1-(cyclopropylamino)-6,6-difluoro-1,2-dioxoheptan-3-yl)carbamoyl)-4-(trifluoromethoxy)pyrrolidin-1-yl)-3,3-dimethyl-1-oxobutan-2-yl)carbamate] belongs 36 nM.

Consider `COC(=O)N[C@H](C(=O)N1C[C@H](C(F)(F)F)C[C@H]1C(=O)N[C@@H](CCC(C)(F)F)C(=O)C(=O)NC1CC1)C(C)(C)F` [Example 71, Methyl ((R)-1-((2S,4R)-2-(((S)-1-(cyclopropylamino)-6,6-difluoro-1,2-dioxoheptan-3-yl)carbamoyl)-4-(trifluoromethyl)pyrrolidin-1-yl)-3-fluoro-3-methyl-1-oxobutan-2-yl)carbamate], for which the IC50 amounted to 43 nM. To `COC(=O)N[C@H](C(=O)N1CC2(CCCCC2)C[C@H]1C(=O)N[C@@H](CCC(C)(F)F)C(=O)C(=O)NC1CC1)C1CCOCC1` [Example 74, Methyl ((S)-2-((S)-3-(((S)-1-(cyclopropylamino)-6,6-difluoro-1,2-dioxoheptan-3-yl)carbamoyl)-2-azaspiro[4.5]decan-2-yl)-2-ox0-1-(tetrahydro-2H-pyran-4-yl)ethyl)carbamate] belongs 69 nM; to `CNC(=O)N[C@H](C(=O)N1CC2(CCCCC2)C[C@H]1C(=O)N[C@@H](CCC(C)(F)F)C(=O)C(=O)NC1CC1)C(C)(C)C` [Example 75, (S)-N-((S)-1-(cyclopropylamino)-6,6-difluoro-1,2-dioxoheptan-3-yl)-2-((S)-3,3-dimethyl-2-(3-methylureido)butanoyl)-2-azaspiro[4.5]decane-3-carboxamide], 82 nM. To `COC(=O)N[C@H](C(=O)N1CC(C)(C)C[C@H]1C(=O)N[C@@H](CCC(C)(F)F)C(=O)C(=O)NC1CC1)C(C)(C)C` [Example 76, Methyl ((S)-1-((S)-2-(((S)-1-(cyclopropylamino)-6,6-difluoro-1,2-dioxoheptan-3-yl)carbamoyl)-4,4-dimethylpyrrolidin-1-yl)-3,3-dimethyl-1-oxobutan-2-yl)carbamate] belongs 87 nM; to `COC(=O)N[C@H](C(=O)N1CC2(CCCCC2)C[C@H]1C(=O)N[C@@H](CCC(C)(F)F)C(=O)C(N)=O)C(C)(C)C` [Example 78, Methyl ((S)-1-((S)-3-(((S)-1-amino-6,6-difluoro-1,2-dioxoheptan-3-yl)carbamoyl)-2-azaspiro[4.5]decan-2-yl)-3,3-dimethyl-1-oxobutan-2-yl)carbamate], 12 nM; to `COC(=O)N[C@H](C(=O)N1C[C@H]2CCCC[C@H]2C[C@H]1C(=O)N[C@@H](CCC(C)(F)F)C(=O)C(=O)NC1CC1)C(C)(C)C` [Example 80, methyl ((S)-1-((3S,4aS,8aS)-3-(((S)-1-(cyclopropylamino)-6,6-difluoro-1,2-dioxoheptan-3-yl)carbamoyl)octahydroisoquinolin-2(1H)-yl)-3,3-dimethyl-1-oxobutan-2-yl)carbamate], 12 nM. As for `CNC(=O)C(=O)[C@H](CCC(C)(F)F)NC(=O)[C@@H]1[C@@H](C(F)(F)F)CCN1C(=O)[C@@H](NC(=O)OC)C(C)(C)C` [Example 81, methyl ((S)-1-((2S,3S)-2-(((S)-6,6-difluoro-1-(methylamino)-1,2-dioxoheptan-3-yl)carbamoyl)-3-(trifluoromethyl)pyrrolidin-1-yl)-3,3-dimethyl-1-oxobutan-2-yl)carbamate], the figure is 44 nM; as for `CNC(=O)C(=O)[C@H](CCC(C)(F)F)NC(=O)[C@@H]1CC[C@H](C)N1C(=O)[C@@H](NC(=O)OC)C(C)(C)C` [Example 85, methyl ((S)-1-((2S,5S)-2-(((S)-6,6-difluoro-1-(methylamino)-1,2-dioxoheptan-3-yl)carbamoyl)-5-methylpyrrolidin-1-yl)-3,3-dimethyl-1-oxobutan-2-yl)carbamate], 257 nM.

(Values after patent US20250223259A1, “PROTEASE INHIBITORS FOR TREATING OR PREVENTING CORONAVIRUS INFECTION” (Merck Sharp & Dohme LLC, priority 2022, published 2025).)
